What was measured:
LFA-1 activation = LFA-1 activation staining (ICAM-1/Fc chimera, flow cytometry) of T cells activated by anti-CD3/CD28 bead; type: cell-based, human
Procedure: Half million CD4 T cells in 500 μl culture medium were treated with 5 μl of human IgG (Jackson Immuno Research, West Grove, Pa.) to block non-specific staining. Cells were stained with 10 μl (50 μg/ml) of human ICAM-1 Fc chimera (R&D System, Minneapolis, Minn.) for 20 min at 4° C. Cells were washed and blocked by 5 μl of mouse IgG (Jackson ImmunoResearch, West Grove, Pa.), followed by the addition of 10 μl of FITC labeled mouse anti-human Fc (Jackson ImmunoResearch, West Grove, Pa.), and incubated for 20 min at 4° C. Cells were finally washed and resuspended in 500 μl of 1% paraformaldehyde for flow cytometry.
Thus, the effect of Jas on T cell activity was determined. FIG. 3A illustrates inhibition of HIV-1 latent infection by Jas. Effects of Jas on LFA-1 activation also were tested. Jas treated or untreated resting T cells were activated by anti-CD3/CD28 bead and stained with human ICAM-1/Fc chimera and analyzed by flow cytometer. The effects of Jas on IL-2 secretion also were measured. […] Cells were treated with Jas for 2 hours, washed, infected with HIV-1 for 5 days, then activated by anti-CD3/CD28 bead. […] Following infection, cellular DNA was PCR amplified for viral late DNA and β-actin pseudogene. Cells were pre-activated with PHA plus IL-2, then treated and infected as in FIG. 3A. […] CEM-SS cell were treated and infected as in FIG. 3A. […]

F-actin = test: Competitive binding of phalloidin to F-actin; details: 120 nM
HIV-1 = HIV-1 infection of transformed CEM-SS cells; type: cell-based, HIV-1NL4-3
Procedure: Thus, the effect of Jas on T cell activity was determined. FIG. 3A illustrates inhibition of HIV-1 latent infection by Jas. Effects of Jas on LFA-1 activation also were tested. Jas treated or untreated resting T cells were activated by anti-CD3/CD28 bead and stained with human ICAM-1/Fc chimera and analyzed by flow cytometer. The effects of Jas on IL-2 secretion also were measured. […] Cells were treated with Jas for 2 hours, washed, infected with HIV-1 for 5 days, then activated by anti-CD3/CD28 bead. […] Following infection, cellular DNA was PCR amplified for viral late DNA and β-actin pseudogene. Cells were pre-activated with PHA plus IL-2, then treated and infected as in FIG. 3A. […] CEM-SS cell were treated and infected as in FIG. 3A. Effects of Jas on HIV-1 infection of resting T cells pre-stimulated with anti-CD4/CXCR4 bead (2 beads/cell) are shown in FIG. 3E. Pre-stimulated cells were treated and infected as in FIG. 3A.

CD4/CXCR4 distribution = test: Confocal microscopy of CD4 and CXCR4 distribution on resting CD4 T cells; type: cell-based, human; details: 120 nM, 2 hours
Source text: Stained cells were imaged using a Zeiss Laser Scanning Microscope (Thornwood, N.Y.), LSM 510 META, with a 40 NA 1.3 or 60 NA 1.4 oil Dic Plan-Neofluar objective. Samples were excited with two laser lines, 488 nm for GFP and 543 nm for Alexa 594. Images were simultaneously recorded in three channels: channel one: fluorescent emissions from 505 to 530 nm for GFP (green); channel two: emissions from 580 to 650 nm for Alexa 594 (red); channel three: DIC. Images were processed and analyzed by the LSM 510 META software.
FIG. 8 illustrates confocal microscopy of CD4 and CXCR4 distribution on resting CD4 T cells treated with 120 nM Jas. Resting CD4 T cells were treated with 120 nM of Jas for 2 hours, then fixed and stained with a FITC-labeled anti-human CD4 monoclonal antibody and a biotin-labeled anti-human CXCR4 monoclonal antibody followed by Alexa Fluor-594 labeled streptavidin (right panel). Untreated resting CD4 T cells were used as a control (left panel).

IL-2 secretion = test: IL-2 ELISA of cell culture supernatant after T cell activation; type: cell-based, human
Procedure: IL-2 release into cell culture supernatant was detected by a human IL-2 ELISA development kit (PeproTech, Rocky Hill, N.J.) according to the manufacture's instruction. Briefly, each well of a plate was coated with 100 μl of capture antibody (1 μg/ml) and incubated overnight at room temperature, then washed and blocked with 300 μl of blocking solution for one hour at room temperature. Samples in plates were incubated for 1 hour at 37° C., then washed and incubated with 100 μl of detection antibody (0.5 μg/ml) for 1 hour at 37° C. Plates were washed and incubated with 100 μl of the avidin-peroxidase conjugate (1:2000 dilution) for 30 minutes at room temperature followed by washing and incubation with 100 μl of Tetramethylbenzidine (TMB) substrate buffer. Plates were kinetically read using ELx808 automatic microplate reader (Bio-Tek Instruments, Inc. Winooski, Vt.) at 630 nm.

## C/C1=C\[C@H](C)C[C@H](C)OC(=O)C[C@H](c2ccc(O)cc2)NC(=O)[C@@H](Cc2c(Br)[nH]c3ccccc23)N(C)C(=O)[C@H](C)NC(=O)[C@@H](C)C1 [Jas, Jasplakinolide]
LFA-1 activation; 120 nM and below
  inhibition of LFA-1 activation: no detectable inhibition
LFA-1 activation; 3 1μM Jas
  inhibition of LFA-1 activation: greatly inhibited
F-actin
  inhibition of subsequent competitive binding of phalloidin to F-actin: significantly inhibited
HIV-1; 3μM
  inhibition of HIV replication in GEM-SS: did inhibit HIV replication
HIV-1; similar Jas treatment (120 nM)
  inhibition of HIV replication in transformed CEM-SS: no inhibition
CD4/CXCR4 distribution
  CD4/CXCR4 distribution on the surface, treated vs untreated cells: did not reveal any significant difference
IL-2 secretion; 120 nM and below
  effect on IL-2 secretion: no significant effect
IL-2 secretion; 600 nM and above
  effect on IL-2 expression following T cell activation: inhibited IL-2 expression

— patent US7662547B2, “Compositions and methods for detecting and treating HIV infections” (priority 2006, dated 2010)
